Source: patent publication US20090182031A1, “Reduction of Hair Growth” (The Gillette Company, a Delaware corporation, priority 2004, published 2009)

Test system: human hair follicles
Experiment: Human hair follicle growth assay
Format: cell-based
Settings: for % Reduction (hair growth): versus control
Description: Human skin was obtained from a plastic surgeon as a by-product of face-lift procedures. The skin samples generally consisted of haired and non-haired regions taken from the area of the face. Immediately after removal, the skin was placed in Williams E medium containing antibiotics, and kept refrigerated. The Williams E medium was commercially obtained (Life Technologies, Gaithersburg, Md.), and has been formulated with essential nutrients for maintaining viability of hair follicle in an in-vitro environment.
Human hair follicles in growth phase (anagen) were isolated from face-lift tissue under a dissecting scope using a scalpel and watchmakers forceps. The skin was sliced into thin strips exposing 2-3 rows of follicles that could readily be dissected. Follicles were placed into 0.5 ml Williams E medium supplemented with 2 mM L-glutamine, 10 ug/ml insulin, 10 ng/ml hydrocortisone, 100 units penicillin, 0.1 mg/ml streptomycin and 0.25 μg/ml amphotericin B. The follicles were incubated in 24 well plates (1 follicle/well) at 37° C. in an atmosphere of 5% CO2 and 95% air. Hair follicle images were taken in the 24-well plates under the dissecting scope under a power of 20×. Hair follicle lengths were measured on day 0 (day follicles were placed in culture) and again on day 6-7. In this system follicles appear to fully differentiate into a hair fiber and increase in length at a rate similar to the human, in vivo, rate of about 0.3 mm/day. For testing inhibitors of heat shock proteins, the inhibitors or anti-HSP antibody were included in the culture medium from time 0 and remained in the medium throughout the course of the experiment.

Compound	% Reduction (hair growth) (10 μM, day 0 to day 5) [%]	Length Increase (mm) (10 μM, follicle length day 5 minus day 0)	% Reduction (hair growth) (50 μM, day 0 to day 5) [%]	Length Increase (mm) (50 μM, follicle length day 5 minus day 0)	% Reduction (hair growth) (0.1 μM, day 0 to day 6) [%]	Length Increase (mm) (0.1 μM, follicle length day 6 minus day 0)	% Reduction (hair growth) (1 μM, day 0 to day 6) [%]	Length Increase (mm) (1 μM, follicle length day 6 minus day 0)	reduction of hair growth (submicromolar dose)
O=CN1CCC(=Cc2ccc3c(c2)OCO3)C1=O [KNK 437, 1-Pyrrolidinecarboxaldehyde, 3-(1,3-benzodioxol-5-ylmethylene)-2-oxo-(9CI)]	57	0.75 ± 0.13	80	0.35 ± 0.12	–	–	–	–	–
COC1=C2C[C@@H](C)C[C@H](OC)[C@H](O)[C@@H](C)/C=C(\C)[C@H](OC(N)=O)[C@@H](OC)/C=C\C=C(/C)C(=O)NC(=CC1=O)C2=O [Geldanamycin, 2-Azabicyclo[16.3.1]docosa-4,6,10,18,21-pentaene-3,20,22-trione, 9,13-dihydroxy-8,14,19-trimethoxy-4,10,12,16-tetramethyl-, 9-carbamate (8CI)]	–	–	–	–	52	0.55 ± 0.13	74	0.30 ± 0.08	over 50%
